# Laboratory results published in PMC12292862 (Biomedicines, 2025).
# Marks after values point to notes of the source that are not given here.
# Tests used:
# rat cyclooxygenase 2 = experiment: COX-2 level in carrageenan-injected paw (ELISA); type: in vivo; conditions: compounds 200 mg/kg i.p., indomethacin 10 mg/kg, mean ± SD
# Experimental: The selective pro-inflammatory cytokines were measured quantitatively using rat-specific Enzyme-Linked Immunosorbent Assay (ELISA) kits from Thermo Scientific™ (Waltham, MA, USA) with CAT. No. ERCRP for CRP; from Elabscience with Cat. No. E-EL-R2856 for TNF-α and with Cat. No. E-EL-R0011 for IL-1α; from CUSABIO, Houston, TX, USA, with Cat. No. CSB-E04640r for IL-6; and from My BioSource Co, USA, with Cat. No. MBS825017 for IL-1β, with Cat. No. MBS753621 for rat cyclooxygenase 1, and with Cat. No. MBS266603 for rat cyclooxygenase 2. […] We purchased malondialdehyde (MDA), glutathione (GSH), and superoxide dismutase (SOD) detection kits from Nanjing Jiancheng Bio-Technology Co. Ltd. (Nanjing, China).
# (§1) At the end of the experiments, the rats were subjected to anesthesia with chloroform and then sacrificed. Blood was obtained via heart puncture for biochemical analysis. Following the animals’ sacrifice, the paws were taken out, decalcified, and stored in a 10% formalin solution. To prepare the tissue samples, they were sliced into thicknesses of 5 µm. Hematoxylin and eosin dyes were used to create the histology slides, which were then examined using a photomicroscope (Meiji Techno®, Iruma, Japan) for pathological alterations. The presence of inflammation was documented. Protease/phosphatase inhibitor cocktail in cold phosphate-buffered saline (1:4) (pH 7, 0.01 mol/L) (Cat. No. PPC1010, Sigma-Aldrich) was used to homogenize each rat’s paw piece in a glass homogenizer. After filtering and centrifuging the resultant homogenate for five minutes at 5000× g, oxidative stress biomarkers like GSH, SOD, and MDA were measured. The trials were repeated three times.
# TNF-α = experiment: Serum TNF-α (ELISA) in carrageenan-injected rats; type: in vivo, rat; conditions: compounds 200 mg/kg i.p., indomethacin 10 mg/kg, mean ± SD
# Experimental: (§2) The selective pro-inflammatory cytokines were measured quantitatively using rat-specific Enzyme-Linked Immunosorbent Assay (ELISA) kits from Thermo Scientific™ (Waltham, MA, USA) with CAT. No. ERCRP for CRP; from Elabscience with Cat. No. E-EL-R2856 for TNF-α and with Cat. No. E-EL-R0011 for IL-1α; from CUSABIO, Houston, TX, USA, with Cat. No. CSB-E04640r for IL-6; and from My BioSource Co, USA, with Cat. No. MBS825017 for IL-1β, with Cat. No. MBS753621 for rat cyclooxygenase 1, and with Cat. No. MBS266603 for rat cyclooxygenase 2. Meanwhile, an ovine COX inhibitor-screening in vitro assay (item number 760111) was obtained from Cayman Chemical (Ann Arbor, MI, USA). We purchased malondialdehyde (MDA), glutathione (GSH), and superoxide dismutase (SOD) detection kits from Nanjing Jiancheng Bio-Technology Co. Ltd. (Nanjing, China).
# as §1
# COX-2 = experiment: In vitro colorimetric COX (ovine) inhibitor-screening assay, COX-2; type: biochemical; conditions: ovine COX-2, tested at 50, 100 and 150 µg/mL
# Experimental: The test compounds’ ability to suppress COX-1 and COX-2 was evaluated using a colorimetric COX (ovine) inhibitor-screening method (Cayman Chemical, Item Number 760111). In brief, 150 μL of assay buffer, 10 μL of heme, 10 μL of enzyme (COX-1 or COX-2), and 10 μL of compound (1 mg/mL) make up the reaction mixture. In a final volume of […], the test compounds were evaluated at doses of 50, 100, and 150 μg/mL. The cyclooxygenase peroxidase component is used in the experiment. By monitoring the appearance of oxidized N, N, […] (TMPD) at 590 nm, the peroxidase activity is measured […]. […] The following formula was used to determine the % COX inhibition: The COX inhibition activity percentage is equal to (1 − T/C ×100), where T is the inhibitor well’s absorbance and C is the starting activity’s absorbance at 100% without the inhibitor well.
# IL-6 = experiment: Serum IL-6 (ELISA) in carrageenan-injected rats; type: in vivo, rat; conditions: compounds 200 mg/kg i.p., indomethacin 10 mg/kg, mean ± SD
# Experimental: as §2, §1
# IL-1α = experiment: Serum IL-1α (ELISA) in carrageenan-injected rats; type: in vivo, rat; conditions: compounds 200 mg/kg i.p., indomethacin 10 mg/kg, mean ± SD
# Experimental: as §2, §1
# [1] = Cell viability and cytotoxicity (MTT assay); type: cell-based, human; conditions: human, WI-38 human lung fibroblast cells, WI-38 cells; for IC50: 31.25 to 1000 µg/mL
# Experimental: (§3) The cell lines were obtained from VACSERA—Holding Company for Biological Products and Vaccines, Cairo, Egypt. A 96-well tissue culture plate was seeded with 1 × 10^5 cells/mL (Wl-38 cells) from the human lung fibroblast cell line, adding 100 µL per well, and incubated at 37 °C with 5% CO2 for 24 h to allow the formation of a confluent monolayer. Following incubation, the growth medium was aspirated, and the cell monolayers were washed twice with wash medium to remove residual serum. Serial two-fold dilutions of the test compound were prepared in RPMI-1640 supplemented with 2% fetal bovine serum. Each dilution (100 µL) was added to the designated wells, while three wells served as negative controls and received only maintenance medium. The plate was incubated at 37 °C for an appropriate duration, during which cellular morphology was monitored for signs of cytotoxicity, including monolayer disruption, cell rounding, shrinkage, or granulation. MTT solution (5 mg/mL in PBS) was prepared, and 20 µL was added to each well. The plate was briefly agitated at 150 rpm for 5 min and then incubated for 4 h at 37 °C to allow viable cells to metabolize MTT into insoluble formazan crystals. After incubation, the supernatant was carefully removed, and 200 µL of DMSO was added to each well to solubilize the formazan. The plates were agitated again at 150 rpm for 5 min, and the absorbance was measured at 560 nm with background subtraction at 620 nm. The resulting optical density values were directly proportional to the number of viable cells.
# (§4) The information was presented as the mean ± SD of the volume difference (mL) between the control and carrageenan-treated paws. One-way analysis of variance (ANOVA) was used to analyze the experimental groups’ data, and a Tukey post hoc test was then performed. p < 0.05 was considered significant. The IC50 values were calculated using Microsoft Excel by plotting a dose–response curve between compound concentration and cell viability percentage. A linear regression or logarithmic trendline was fitted to the data points, depending on the curve behavior.
# [2] = test system: WI-38 human lung fibroblast cells; experiment: Cell viability and cytotoxicity (MTT assay); type: cell-based; conditions: WI-38 cells; morphology
# Experimental: as §3, §4
# rat cyclooxygenase 1 = experiment: COX-1 level in carrageenan-injected paw (ELISA); type: in vivo; conditions: compounds 200 mg/kg i.p., indomethacin 10 mg/kg, mean ± SD
# Experimental: as §2, §1
Structure (SMILES),COX-2 level (rat cyclooxygenase 2),TNF-α (TNF-α),COX-2 inhibition % (mean activity) (COX-2),IL-6 (IL-6),IL-1α (IL-1α),viability at 31.25 µg/mL [1],IC50 [1],concentration above which cells shrink and lose fibroblast-like structure [2],COX-1 level (rat cyclooxygenase 1),TNF-α (TNF-α; listed as C3),IL-6 (IL-6; listed as C3)
"NC1=NC2(CCCCCC2)n2nc(C(=O)Nc3ccc(S(N)(=O)=O)cc3)nc2N1 [Compound 1, 5′-Amino-N-(4-sulfamoylphenyl). -1′H-spiro[cycloheptane-1,7′-[1,2,4]triazolo[1,5-a][1,3,5] -triazine] -2′-carboxamide]",3.44 ± 0.30 ng/mL,8.27 ± 0.19 ^b pg/mL,98%,14.44 ± 0.26 ^b pg/mL,56.97 ± 0.79 ^b pg/mL,99.9%,363 µg/mL,above 125 µg/mL,4.31 ± 0.90 ng/mL,–,–
CC1(C)CC(=O)CC2(C1)N=C(N)Nc1nc(C(=O)Nc3ccc(S(N)(=O)=O)cc3)nn12 (centres unmarked) [Compound 2],4.10 ± 0.09 ng/mL,9.38 ± 0.20 ^b pg/mL,98%,16.14 ± 0.16 ^b pg/mL,62.82 ± 0.94 ^b pg/mL,99.9%,328 µg/mL,above 125 µg/mL,5.24 ± 0.09 ng/mL,–,–
NC1=NC2(c3ccccc3Cc3ccccc32)n2nc(C(=O)Nc3ccc(S(N)(=O)=O)cc3)nc2N1 [Compound 3],2.22 ± 0.06 ng/mL,7.16 ± 0.13 pg/mL,99%,11.39 ± 0.23 pg/mL,40.66 ± 0.43 ^b pg/mL,99.8%,148 µg/mL,above 62.5 µg/mL,2.82 ± 0.08 ng/mL,7.16 ± 0.13 ^b pg/mL,11.39 ± 0.23 ^b pg/mL
